Test results: patent publication US20200155500A1, “COMPOSITION FOR PREVENTING AND TREATING PANCREATITIS CONTAINING NAPHTHOQUINONE-BASED COMPOUND AS ACTIVE INGREDIENT” (NADIANBIO Ltd., priority 2015, published 2020)

Columns and labels:
[1] = tested on: caerulein mediated pancreatitis; assay: Ratio of pancreas weight to body weight, caerulein mediated pancreatitis model; assay type: in vivo; details: C57BL/6 mice, oral 10, 20, 40 mg/kg one day before caerulein (50 μg/kg i.p. x6); vs caerulein treated group
Procedure: In this invention, C57BL/6 mice at the body weight of about 22±2 g were used. All the mice were raised in a sterile animal laboratory with constant temperature (22˜26[…]) and humidity (55˜60%). The mice were adapted for 1 week while feeding with normal solid feed (Samtaco Korea) and water. All the experiments were performed according to the guide for the care and use of laboratory animals set by Wonkwang University. […] When pancreatitis is developed, the weight of pancreas is known to be increased because of edema. Thus, blood was extracted from all the animals finished with the experiment and then the ratio of the pancreas weight to the body weight was measured. […] After blood was extracted, the pancreas was cut out and the weight of the pancreas to the body weight was measured by the pancreas weight (wet pancreas weight)/body weight (wet body weight) formula of Grady method.

amylase [2] = assay: Serum amylase activity, caerulein mediated pancreatitis model; assay type: in vivo; details: C57BL/6 mice, oral 10, 20, 40 mg/kg one day before caerulein; vs caerulein treated group
Procedure: (§1) In this invention, C57BL/6 mice at the body weight of about 22±2 g were used. All the mice were raised in a sterile animal laboratory with constant temperature (22˜26[…]) and humidity (55˜60%). The mice were adapted for 1 week while feeding with normal solid feed (Samtaco Korea) and water. All the experiments were performed according to the guide for the care and use of laboratory animals set by Wonkwang University.
(§2) Serum was obtained and then OD595 and OD412 were measured by using amylase activity analysis kit (DAMY-100; BioAssay Systems, USA) and lipase activity analysis kit (DLPS-100; BioAssay Systems, USA) to investigate the activities of amylase and lipase.

lipase [3] = assay: Serum lipase activity, caerulein mediated pancreatitis model; assay type: in vivo; details: C57BL/6 mice, oral 10, 20, 40 mg/kg one day before caerulein; vs caerulein treated group
Procedure: as §1, §2

IL-1β [4] = assay: Serum IL-1β level by ELISA, caerulein mediated pancreatitis model; assay type: in vivo; details: C57BL/6 mice, oral 10, 20, 40 mg/kg one day before caerulein, dose-dependently, vs caerulein treated group
Procedure: as §1
(§3) Serum was obtained from the animal model and then the level of serum IL-1β was measured by using mouse IL-1β ELISA kit (BD, USA). First, nasal lavage fluid or diluted serum was loaded in the 96-well plate coated with the mouse IL-1β specific antibody, followed by reaction at room temperature for 2 hours. After washing the plate, biotin conjugate was added thereto, followed by reaction at room temperature for 1 hour. After washing the plate, streptavidin-HRP working solution was added thereto, followed by reaction. After washing the plate again, stabilized chromogen was added thereto, followed by reaction. Then, OD450 was measured. In addition, the expression of IL-1β in pancreas was confirmed by real-time PCR in each pancreas tissue. To extract total RNA, 1 mL of TRIzol (Invitrogen, USA) was added to 20 mg of each pancreas tissue, which stood on ice for 5 minutes to lyse cells. […] The RNA was quantified by using Nanodrop 2000 (Thermo, USA). […]

IL-1β [5] = assay: Expression of IL-1β in pancreas by real-time PCR, caerulein mediated pancreatitis model; assay type: in vivo; details: C57BL/6 mice, oral treatment one day before caerulein, vs caerulein treated group
Procedure: as §1, §3

MCP-1 = assay: Expression of MCP-1 in pancreas by RT-PCR, caerulein mediated pancreatitis model; assay type: in vivo; details: C57BL/6 mice, oral 10, 20, 40 mg/kg one day before caerulein, vs caerulein treated group
Procedure: as §1

[6] = tested on: caerulein mediated pancreatitis; assay: Morphological changes of pancreas tissue (hematoxylin-eosin, histological scores), preventive treatment; assay type: in vivo; details: C57/BL6 mouse, oral 10, 20, 40 mg/kg one day before caerulein; dose-dependently
Procedure: as §1
Pancreas tissues were separated, fixed in 10% formalin for 24 hours at 4[…], demineralized with 10% ethylenediaminetetra-acetic acid (EDTA, pH 7.4) solution, washed, dehydrated, embedded in paraffin and cut into 5 μm sections. The sections were stained with hematoxylin-eosin, followed by observation under optical microscope.

[7] = tested on: lung damage induced by caerulein; assay: Lung damage induced by pancreatitis, C57/BL6 mouse; assay type: in vivo; details: cotreatment 10, 20, 40 mg/kg
NQO-1 knock out mouse [8] = assay: Morphological changes of pancreas tissue in NQO1 knock out mouse; assay type: in vivo; details: 40 mg/kg plus caerulein, vs caerulein treated group
From the text: β-lapachone is known as a co-substrate of NQO-1 (NAD(P)H: quinone oxidoreductase-1). So, in order to confirm whether or not the pancreas protection effect of β-lapachone was via the activation pathway of NQO-1, the morphological changes of pancreas were investigated in NQO-1 knock out mouse.
Then, the pancreas tissues were stained with hematoxylin-eosin by the same manner as described in Experimental Example 5, followed by observation under optical microscope.

NQO-1 knock out mouse [9] = assay: Ratio of pancreas weight to body weight in NQO-1 knock out mouse; assay type: in vivo; details: NQO1 knock out mouse; caerulein treated group vs β-lapachone cotreated group
Procedure: (§4) To confirm whether or not the protective effect of β-lapachone on pancreatitis was via the activation pathway of NQO-1 enzyme, the present inventors investigated the weight of pancreas, the activities of serum amylase and lipase, and the concentration of serum IL-1β in NQO-1 knock out mouse.
(§5) Then, the ratio of the pancreas weight to the body weight was calculated by the same manner as described in Experimental Example 2. The activities of serum amylase and lipase were measured using a kit by the same manner as described in Experimental Example 3.

amylase [10] = assay: Serum amylase activity in NQO-1 knock out mouse; assay type: in vivo; details: NQO1 knock out mouse; caerulein treated group vs β-lapachone cotreated group
Procedure: as §4, §5

lipase [11] = assay: Serum lipase activity in NQO-1 knock out mouse; assay type: in vivo; details: NQO1 knock out mouse; caerulein treated group vs β-lapachone cotreated group
Procedure: as §4, §5

IL-1β [12] = assay: Serum IL-1β concentration in NQO-1 knock out mouse; assay type: in vivo; details: NQO1 knock out mouse; caerulein treated group vs β-lapachone cotreated group
Procedure: as §4, §5

[13] = tested on: pancreatitis induced by caerulein; assay: Therapeutic effect on caerulein-induced pancreatitis, pancreas tissue morphology; assay type: in vivo, C57BL/6 mice; details: intravenous injection six hours after the final caerulein administration; 10, 20, 40 mg/kg
Procedure: as §1

NQO-1 knock out mouse [14] = assay: Lung damage induced by pancreatitis, NQO-1 knock out mouse; assay type: in vivo; details: cotreatment with β-lapachone

SMILES | ratio of pancreas weight/body weight [1] | amylase activity in serum (amylase [2]) | lipase activity in serum (lipase [3]) | serum IL-1β level (IL-1β [4]) | expression of IL-1β in pancreas (IL-1β [5]) | expression of MCP-1 in pancreas (MCP-1) | edema, inflammation, and cell necrosis of pancreas tissues induced by caerulein (histological scores) [6] | lung damage induced by caerulein [7] | edema, inflammation, and cell necrosis of pancreas tissues (NQO-1 knock out mouse [8]) | ratio of pancreas weight/body weight (NQO-1 knock out mouse [9]) | activity of serum amylase (amylase [10]) | activity of serum lipase (lipase [11]) | concentration of serum IL-1β (IL-1β [12]) | edema, inflammation, and cell necrosis of pancreas tissues induced by caerulein (histological scores) [13] | lung damage induced by caerulein (NQO-1 knock out mouse [14])
CC1OC2=C(C(=O)C(=O)c3ccccc32)C1(C)C (centres unmarked) [dunnione] | significantly reduced dose-dependently | significantly reduced dose-dependently | significantly reduced dose-dependently | significantly reduced | significantly reduced | reduced dose-dependently | all inhibited | significantly inhibited | – | – | – | – | – | – | –
CC1(C)CCC2=C(O1)c1ccccc1C(=O)C2=O [β-lapachone] | significantly reduced dose-dependently | significantly reduced dose-dependently | significantly reduced dose-dependently | significantly reduced | significantly reduced | reduced dose-dependently | all inhibited | inhibited | not reduced | not significantly different | not significantly different | not significantly different | not much different | all reduced | not inhibited
